Test results reported in US20240148821A1, “PHARMACEUTICAL USE OF CYCLIC PEPTIDE COMPOUND” (CHUGAI SEIYAKU KABUSHIKI KAISHA, priority 2021, published 2024).
Numbered stars: 1 amine (or outer) side, 2 acyl side, 3 side chain; on linkers, the order of the positions; unused ones are H or OH. Bridge positions count the residues as written; N and C are the ends. Square brackets hold non-standard residues; d marks the D form. Peptide text beside a SMILES is read from it. * marks the point of attachment. hPhe(3-Cl-4-CF3) = N[C@@H](CCc1ccc(C(F)(F)F)c(Cl)c1)C(=O)O; X49 = CN([C@@H](Cc1cccc(OC(F)(F)F)c1)C(=O)[*:2])[*:1]; X52 = CN([C@@H](Cc1ccccc1OC(F)(F)F)C(=O)[*:2])[*:1]; 3Oxa8azabicyclo(3.2.1)octane = C1CC2COCC1N2*; NMePhe(4-Cl) = CN[C@@H](Cc1ccc(Cl)cc1)C(=O)O; NMePhe(4-Me) = CN[C@@H](Cc1ccc(C)cc1)C(=O)O; Leu(4,5-dehydro) = C=C(C)C[C@H](N)C(=O)O; Phe(3-I) = N[C@@H](Cc1cccc(I)c1)C(=O)O; Pro(4,4-F2) = O=C(O)[C@@H]1CC(F)(F)CN1; NMeGly(cBu) = CN[C@H](C(=O)O)C1CCC1; NMeY = CN[C@@H](Cc1ccc(O)cc1)C(=O)O; NMeCha = CN[C@@H](CC1CCCCC1)C(=O)O; NMeChg = CN[C@H](C(=O)O)C1CCCCC1; NMeD = CN[C@@H](CC(=O)O)C(=O)O; NMeL = CN[C@@H](CC(C)C)C(=O)O; NMeV = CN[C@H](C(=O)O)C(C)C; d(β3hA) = C[C@@H](N)CC(=O)O; NMeS = CN[C@@H](CO)C(=O)O; NMeA = CN[C@@H](C)C(=O)O; NMeAib = CNC(C)(C)C(=O)O; Piperidide = C1CCN(*)CC1; Pra = C#CC[C@H](N)C(=O)O; Pyrrolidide = C1CCN(*)C1; Ac5c = NC1(C(=O)O)CCCC1; Aze = O=C(O)[C@@H]1CCN1; CH2CMe2OH = CC(C)(O)C*; βAla = NCCC(=O)O; CF3 = FC(F)(F)*; Sar = CNCC(=O)O

The molecules below were run on Human pancreatic cancer cell line AsPC-1 (G12D mutation Kras) (assay: AsPC-1 cell growth inhibition (AsPC-1 CGI)). Details: read-out: AsPC-1 cell growth inhibition, 50% growth inhibitory concentration (IC50 value); 96 hours, CellTiter-Glo, values classified in ranges.
Assay type: cell-based
Experimental: Test compounds were serially dilated with dimethyl sulfoxide, and 200 nL was then dispensed to a U-bottom 96-well plate using Labcyte Echo. […] The cell suspension was dispensed to a. plate containing a test compound at 100 μL per well and incubated at 37° C. in a 5% carbon dioxide gas incubator. 96 hours later, 80 μL of CellTiter-Glo (Promega) was added to each well and fluorescence was measured.

Compound | IC50
CC[C@H](C)[C@@H]1NC(=O)CCNC(=O)[C@H](COCC(C)(C)O)N(C)C(=O)[C@H](C2CCCCC2)N(C)C(=O)C2(CCCC2)NC(=O)[C@@H]2CCCN2C(=O)[C@H](CCc2ccc(C(F)(F)F)c(Cl)c2)NC(=O)CN(C)C(=O)[C@H](CC2CCCCC2)N(C)C(=O)CN(C)C(=O)CN(C)C1=O [Compound 605] (cyclo([Ac5c][NMeChg][NMeS](CH2CMe2OH)[βAla]I[Sar][Sar][NMeCha][Sar][hPhe(3-Cl-4-CF3)]P)) | > 0.5 µM
CC[C@H](C)[C@@H]1NC(=O)[C@H](C2CCC2)N(C)C(=O)C[C@@H](C(=O)N2CCCC2)N(C)C(=O)[C@H](C2CCCCC2)N(C)C(=O)C2(CCCC2)NC(=O)[C@@H]2CC(F)(F)CN2C(=O)[C@H](CCc2ccc(C(F)(F)F)c(Cl)c2)NC(=O)CN(C)C(=O)[C@H](CC2CCCCC2)N(C)C(=O)CN(C)C(=O)CN(C)C1=O [Compound 1363] ([NMeGly(cBu)]I[Sar][Sar][NMeCha][Sar][hPhe(3-Cl-4-CF3)][Pro(4,4-F2)][Ac5c][NMeChg][NMeD]-Pyrrolidide; lactam N-11) | ≤ 0.02 µM
C#CC[C@@H]1NC(=O)[C@H](Cc2cccc(I)c2)NC(=O)CN(C)C(=O)[C@H](Cc2ccc(OC(F)(F)F)cc2)N(C)C(=O)[C@@H]2CCN2C(=O)CN(C)C(=O)[C@H]([C@@H](C)CC)NC(=O)[C@H](CC(C)C)N(C)C(=O)C[C@@H](C(=O)N2CCCCC2)N(C)C(=O)[C@H](CC(C)C)NC(=O)C(C)(C)N(C)C1=O [Compound 1298] ([NMeL]I[Sar][Aze][NMeY](CF3)[Sar][Phe(3-I)][Pra][NMeAib]L[NMeD]-Piperidide; lactam N-11) | > 0.5 µM
CC[C@H](C)[C@@H]1NC(=O)[C@H](CC(C)C)N(C)C(=O)C[C@@H](C(=O)N2C3CCC2COC3)N(C)C(=O)[C@H](C2CCCCC2)N(C)C(=O)C2(CCCC2)NC(=O)[C@@H]2CC(F)(F)CN2C(=O)[C@H](CCc2ccc(C(F)(F)F)c(Cl)c2)NC(=O)CN(C)C(=O)[C@H](CC2CCCCC2)N(C)C(=O)CN(C)C(=O)CN(C)C1=O [Compound 1179] ([NMeL]I[Sar][Sar][NMeCha][Sar][hPhe(3-Cl-4-CF3)][Pro(4,4-F2)][Ac5c][NMeChg][NMeD]-{3Oxa8azabicyclo(3.2.1)octane}; lactam N-11) | ≤ 0.02 µM
C=C(C)C[C@@H]1NC(=O)[C@H](Cc2cccc(I)c2)NC(=O)CN(C)C(=O)[C@H](Cc2ccc(Cl)cc2)N(C)C(=O)[C@@H]2CCN2C(=O)CN(C)C(=O)[C@H]([C@@H](C)CC)NC(=O)[C@H](CC(C)C)N(C)C(=O)C[C@@H](C(=O)N2CCCCC2)N(C)C(=O)[C@H](CC(C)C)NC(=O)C(C)(C)N(C)C1=O [Compound 1414] ([NMeL]I[Sar][Aze][NMePhe(4-Cl)][Sar][Phe(3-I)][Leu(4,5-dehydro)][NMeAib]L[NMeD]-Piperidide; lactam N-11) | > 0.5 µM
C#CC[C@@H]1NC(=O)[C@H](Cc2cccc(I)c2)NC(=O)CN(C)C(=O)[C@H](Cc2ccc(OC(F)(F)F)cc2)N(C)C(=O)[C@@H]2CCN2C(=O)[C@H](C)N(C)C(=O)[C@H]([C@@H](C)CC)NC(=O)[C@H](CC(C)C)N(C)C(=O)C[C@@H](C(=O)N2CCCCC2)N(C)C(=O)[C@H](CC(C)C)NC(=O)C(C)(C)N(C)C1=O [Compound 1288] ([NMeL]I[NMeA][Aze][NMeY](CF3)[Sar][Phe(3-I)][Pra][NMeAib]L[NMeD]-Piperidide; lactam N-11) | > 0.5 µM
CC[C@H](C)[C@@H]1NC(=O)[C@H](CC(C)C)N(C)C(=O)C[C@@H](C)NC(=O)[C@H](C(C)C)N(C)C(=O)C2(CCCC2)NC(=O)[C@@H]2CCCN2C(=O)[C@H](CCc2ccc(C(F)(F)F)c(Cl)c2)NC(=O)CN(C)C(=O)[C@H](Cc2ccccc2OC(F)(F)F)N(C)C(=O)CN(C)C(=O)CN(C)C1=O [Compound 1635] (cyclo([Ac5c][NMeV][d(β3hA)][NMeL]I[Sar][Sar][X52][Sar][hPhe(3-Cl-4-CF3)]P)) | > 0.5 µM
CC[C@H](C)[C@@H]1NC(=O)[C@H](CC(C)C)N(C)C(=O)C[C@@H](C(=O)N2CCCCC2)N(C)C(=O)[C@H](CC(C)C)NC(=O)C(C)(C)N(C)C(=O)[C@H](Cc2ccc(OC)cc2)NC(=O)[C@H](Cc2cccc(I)c2)NC(=O)CN(C)C(=O)[C@H](Cc2ccc(C)cc2)N(C)C(=O)[C@@H]2CCN2C(=O)CN(C)C1=O [Compound 188] ([NMeL]I[Sar][Aze][NMePhe(4-Me)][Sar][Phe(3-I)]Y(Me)[NMeAib]L[NMeD]-Piperidide; lactam N-11) | > 0.5 µM
CC[C@H](C)[C@@H]1NC(=O)[C@H](CC(C)C)N(C)C(=O)C[C@@H](C)NC(=O)[C@H](C(C)C)N(C)C(=O)C2(CCCC2)NC(=O)[C@@H]2CCCN2C(=O)[C@H](CCc2ccc(C(F)(F)F)c(Cl)c2)NC(=O)CN(C)C(=O)[C@H](Cc2cccc(OC(F)(F)F)c2)N(C)C(=O)CN(C)C(=O)CN(C)C1=O [Compound 1573] (cyclo([Ac5c][NMeV][d(β3hA)][NMeL]I[Sar][Sar][X49][Sar][hPhe(3-Cl-4-CF3)]P)) | > 0.5 µM
